This passage reports melting point results from US8299123B2, “CCR10 antagonists” (Boehringer Ingelheim International GmbH, priority 2007, dated 2012).

The structures appear in SMILES notation.

For orientation: melting point means the temperature, or range, at which the solid turns liquid. `CCCCOc1ccc(Cl)cc1C(=O)N[C@H]1C[C@@H]1c1ccc(-c2ccc(C(=O)O)cc2)cc1` [Compound 108, 4′-{(1R,2S)-2-[(2-butoxy-5-chlorobenzoyl)amino]cyclopropyl}-biphenyl-4-carboxylic acid] registered a melting point of 218 to 222 °C.
